{"source": "paper PMC5218480", "about": "(PLoS ONE, 2017)", "tested_on": "MV-4-11 cells", "assay": "Gene expression microarray analysis (Affymetrix PrimeView) and GSEA", "assay_type": "cell-based, human", "parameters": "RFU PODN (11730768_x_at) / Fold change /veh PODN (11730768_x_at) / RFU LINC00158 (11744669_a_at) / Fold change /veh LINC00158 (11744669_a_at) / RFU DUSP10 (11751237_a_at) / Fold change /veh DUSP10 (11751237_a_at) / RFU ID3 (11757404_x_at) / Fold change /veh ID3 (11757404_x_at) / RFU PLEKHG5 (11737974_s_at) / Fold change /veh PLEKHG5 (11737974_s_at) / RFU LRRC4B (11730491_at) / Fold change /veh LRRC4B (11730491_at) / RFU GIMAP4 (11747438_a_at) / Fold change /veh GIMAP4 (11747438_a_at) / RFU KRT8 (11758183_x_at) / Fold change /veh KRT8 (11758183_x_at) / RFU CNN1 (11734310_a_at) / Fold change /veh CNN1 (11734310_a_at) / RFU VPS37D (11726825_at) / Fold change /veh VPS37D (11726825_at) / RFU C10orf10 (11716522_x_at) / Fold change /veh C10orf10 (11716522_x_at) / RFU KIR2DL2 /// KIR2DL4 /// KIR2DL5A /// KIR2DL5B /// KIR2DS1 /// KIR2DS2 /// KIR2DS3 /// KIR2DS4 /// KIR3DL3 /// KIR3DL3 /// KIR3DS1 (11738374_at) / Fold change /veh KIR2DL2 /// KIR2DL4 /// KIR2DL5A /// KIR2DL5B /// KIR2DS1 /// KIR2DS2 /// KIR2DS3 /// KIR2DS4 /// KIR3DL3 /// KIR3DL3 /// KIR3DS1 (11738374_at) / RFU C1QL1 (11718748_at) / Fold change /veh C1QL1 (11718748_at) / RFU TMPRSS4 (11747572_a_at) / Fold change /veh TMPRSS4 (11747572_a_at) / RFU HAMP (11756126_x_at) / Fold change /veh HAMP (11756126_x_at) / RFU RNFT2 (11725882_a_at) / Fold change /veh RNFT2 (11725882_a_at) / RFU NR4A2 (11747474_a_at) / Fold change /veh NR4A2 (11747474_a_at) / RFU ABCC12 (11746883_a_at) / Fold change /veh ABCC12 (11746883_a_at) / RFU TMEM136 (11760407_x_at) / Fold change /veh TMEM136 (11760407_x_at) / RFU CLDN22 /// WWC2 (11732394_at) / Fold change /veh CLDN22 /// WWC2 (11732394_at) / RFU HLA-DPB1 (11760878_x_at) / Fold change /veh HLA-DPB1 (11760878_x_at) / RFU SPINT1 (11716480_a_at) / Fold change /veh SPINT1 (11716480_a_at) / RFU GAP43 (11754022_s_at) / Fold change /veh GAP43 (11754022_s_at) / RFU A4GNT (11735810_at) / Fold change /veh A4GNT (11735810_at) / RFU PRB3 (11715151_x_at) / Fold change /veh PRB3 (11715151_x_at) / RFU TUBB4B (11761932_at) / Fold change /veh TUBB4B (11761932_at) / RFU CAPN14 (11732068_a_at) / Fold change /veh CAPN14 (11732068_a_at) / RFU TMCC2 (11721928_a_at) / Fold change /veh TMCC2 (11721928_a_at) / RFU IRGQ (11745062_a_at) / Fold change /veh IRGQ (11745062_a_at) / RFU FAM174B (11720279_a_at) / Fold change /veh FAM174B (11720279_a_at) / RFU TMPRSS4 (11748680_a_at) / Fold change /veh TMPRSS4 (11748680_a_at) / RFU FAM212B (11763350_a_at) / Fold change /veh FAM212B (11763350_a_at) / RFU PLEKHG5 (11743358_a_at) / Fold change /veh PLEKHG5 (11743358_a_at) / RFU ZSCAN30 (11745921_a_at) / Fold change /veh ZSCAN30 (11745921_a_at) / RFU CMKLR1 (11741424_a_at) / Fold change /veh CMKLR1 (11741424_a_at) / RFU LOC101060620 /// MAPK8IP1 (11723275_at) / Fold change /veh LOC101060620 /// MAPK8IP1 (11723275_at) / RFU SPTSSB (11747773_x_at) / Fold change /veh SPTSSB (11747773_x_at) / RFU PRSS12 (11739890_at) / Fold change /veh PRSS12 (11739890_at) / RFU BIN1 (11741810_x_at) / Fold change /veh BIN1 (11741810_x_at) / RFU WNT11 (11732464_a_at) / Fold change /veh WNT11 (11732464_a_at) / RFU C10orf10 (11716521_a_at) / Fold change /veh C10orf10 (11716521_a_at) / RFU C5orf56 (11738089_at) / Fold change /veh C5orf56 (11738089_at) / RFU CYB561 (11721691_x_at) / Fold change /veh CYB561 (11721691_x_at) / RFU ANKRD19P (11752326_a_at) / Fold change /veh ANKRD19P (11752326_a_at) / RFU OR2T12 /// OR2T33 /// OR2T8 (11738714_s_at) / Fold change /veh OR2T12 /// OR2T33 /// OR2T8 (11738714_s_at) / RFU VCAN (11748164_a_at) / Fold change /veh VCAN (11748164_a_at) / RFU JSRP1 (11732532_at) / Fold change /veh JSRP1 (11732532_at) / RFU KRTAP10-11 (11738290_x_at) / Fold change /veh KRTAP10-11 (11738290_x_at) / RFU MYO3A (11730013_a_at) / Fold change /veh MYO3A (11730013_a_at) / RFU EBF3 (11725865_a_at) / Fold change /veh EBF3 (11725865_a_at) / RFU CAMK2N1 (11719241_x_at) / Fold change /veh CAMK2N1 (11719241_x_at) / RFU C5orf56 (11738088_a_at) / Fold change /veh C5orf56 (11738088_a_at) / RFU OLFML3 (11715873_a_at) / Fold change /veh OLFML3 (11715873_a_at) / RFU LOC100653217 /// NTM (11731650_a_at) / Fold change /veh LOC100653217 /// NTM (11731650_a_at) / RFU MAPK11 (11762145_a_at) / Fold change /veh MAPK11 (11762145_a_at) / RFU FIZ1 (11724087_x_at) / Fold change /veh FIZ1 (11724087_x_at) / RFU OASL (11726364_x_at) / Fold change /veh OASL (11726364_x_at) / RFU SOX15 (11748057_x_at) / Fold change /veh SOX15 (11748057_x_at) / RFU CD79A (11719716_a_at) / Fold change /veh CD79A (11719716_a_at) / RFU HIST1H1D (11736915_at) / Fold change /veh HIST1H1D (11736915_at) / RFU CASKIN2 (11723855_a_at) / Fold change /veh CASKIN2 (11723855_a_at) / RFU LOC730098 (11760151_x_at) / Fold change /veh LOC730098 (11760151_x_at) / RFU OR4N2 (11742367_at) / Fold change /veh OR4N2 (11742367_at) / RFU PRRT2 (11749266_a_at) / Fold change /veh PRRT2 (11749266_a_at) / RFU SNX32 (11753110_a_at) / Fold change /veh SNX32 (11753110_a_at) / RFU CDHR5 (11726645_a_at) / Fold change /veh CDHR5 (11726645_a_at) / RFU RCAN1 (11760418_a_at) / Fold change /veh RCAN1 (11760418_a_at) / RFU FAM167A (11723789_a_at) / Fold change /veh FAM167A (11723789_a_at) / RFU FAM26E (11764081_at) / Fold change /veh FAM26E (11764081_at) / RFU ISYNA1 (11749810_s_at) / Fold change /veh ISYNA1 (11749810_s_at) / RFU ACY1 (11761880_at) / Fold change /veh ACY1 (11761880_at) / RFU 11764098_at / Fold change /veh 11764098_at / RFU SAMD14 (11745864_x_at) / Fold change /veh SAMD14 (11745864_x_at) / RFU NPB (11741838_a_at) / Fold change /veh NPB (11741838_a_at) / RFU TMPRSS6 (11731388_a_at) / Fold change /veh TMPRSS6 (11731388_a_at) / RFU KRTAP10-2 (11738614_at) / Fold change /veh KRTAP10-2 (11738614_at) / RFU ARHGAP8 /// PRR5-ARHGAP8 (11727945_x_at) / Fold change /veh ARHGAP8 /// PRR5-ARHGAP8 (11727945_x_at) / RFU KRTAP5-7 /// NADSYN1 (11734609_at) / Fold change /veh KRTAP5-7 /// NADSYN1 (11734609_at) / RFU RASL12 (11751679_a_at) / Fold change /veh RASL12 (11751679_a_at) / RFU CDKN2B (11736163_a_at) / Fold change /veh CDKN2B (11736163_a_at) / RFU PRF1 (11729649_at) / Fold change /veh PRF1 (11729649_at) / RFU, ZNF638 /// ZNF638-IT1 / Fold change vs veh, ZNF638 /// ZNF638-IT1 / RFU, PANK3 / Fold change vs veh, PANK3 / RFU, SH3YL1 / Fold change vs veh, SH3YL1 / RFU, ZEB2 / Fold change vs veh, ZEB2 / RFU, NRIP1 / Fold change vs veh, NRIP1 / RFU, PTTG1IP / Fold change vs veh, PTTG1IP / RFU, CAPN2 / Fold change vs veh, CAPN2 / RFU, MED14 / Fold change vs veh, MED14 / RFU, SNORA58 / Fold change vs veh, SNORA58 / RFU, C1orf63 / Fold change vs veh, C1orf63 / RFU, LRRFIP1 / Fold change vs veh, LRRFIP1 / RFU, NDUFAF7 / Fold change vs veh, NDUFAF7 / RFU, SLC12A2 / Fold change vs veh, SLC12A2 / RFU, IBTK / Fold change vs veh, IBTK / RFU, ESF1 / Fold change vs veh, ESF1 / Fold change vs veh, TMEM50B / RFU, TAOK1 / Fold change vs veh, TAOK1 / RFU, ACBD3 / Fold change vs veh, ACBD3 / RFU, TMA16 / Fold change vs veh, TMA16 / RFU, RWDD3 / Fold change vs veh, RWDD3 / RFU, BCAT1 / Fold change vs veh, BCAT1 / RFU, EDEM3 / Fold change vs veh, EDEM3 / RFU, TMEM33 / Fold change vs veh, TMEM33 / RFU, WDR75 / Fold change vs veh, WDR75 / RFU, AHCTF1 / Fold change vs veh, AHCTF1 / RFU, TFRC / Fold change vs veh, TFRC / RFU, ZDHHC17 / Fold change vs veh, ZDHHC17 / RFU, NOM1 / Fold change vs veh, NOM1 / RFU, ARL8B / Fold change vs veh, ARL8B / RFU, ZBTB11 / Fold change vs veh, ZBTB11 / RFU, TAMM41 / Fold change vs veh, TAMM41 / RFU, KIAA1704 /// LOC100996395 / Fold change vs veh, KIAA1704 /// LOC100996395 / RFU, ING1 / Fold change vs veh, ING1 / RFU, TRMT61B / Fold change vs veh, TRMT61B / RFU, FUBP3 / Fold change vs veh, FUBP3 / RFU, TP53 / Fold change vs veh, TP53 / RFU, TNKS2 / Fold change vs veh, TNKS2 / RFU, ZFP14 / Fold change vs veh, ZFP14 / RFU, ACTR2 / Fold change vs veh, ACTR2 / RFU, PPP3R1 / Fold change vs veh, PPP3R1 / RFU, PIK3R1 / Fold change vs veh, PIK3R1 / RFU, HNRNPA1 / Fold change vs veh, HNRNPA1 / RFU, RNF170 / Fold change vs veh, RNF170 / RFU, ZNF28 / Fold change vs veh, ZNF28 / RFU, RNGTT / Fold change vs veh, RNGTT / RFU, OGT / Fold change vs veh, OGT / RFU, BRD1 / Fold change vs veh, BRD1 / RFU, MARS / Fold change vs veh, MARS / RFU, ZNF655 / Fold change vs veh, ZNF655 / RFU, FAHD1 / Fold change vs veh, FAHD1 / RFU, BDP1 / Fold change vs veh, BDP1 / RFU, LRRCC1 / Fold change vs veh, LRRCC1 / RFU, ARID1A / Fold change vs veh, ARID1A / RFU, ZNF146 / Fold change vs veh, ZNF146 / RFU, ZNF330 / Fold change vs veh, ZNF330 / RFU, GPN3 / Fold change vs veh, GPN3 / RFU, C9orf123 / Fold change vs veh, C9orf123 / RFU, N4BP2L2 / Fold change vs veh, N4BP2L2 / RFU, ARFIP1 / Fold change vs veh, ARFIP1 / RFU, FAM179B / Fold change vs veh, FAM179B / RFU, BCL10 / Fold change vs veh, BCL10 / RFU, UHRF1BP1L / Fold change vs veh, UHRF1BP1L / RFU, BET1 / Fold change vs veh, BET1 / RFU, CNOT2 / Fold change vs veh, CNOT2 / RFU, ZNF268 / Fold change vs veh, ZNF268 / Fold change vs veh, ZNF507 / RFU, DGCR2 / Fold change vs veh, DGCR2 / RFU, WDSUB1 / Fold change vs veh, WDSUB1 / Fold change vs veh, HSP90B1 /// MIR3652 / RFU, ADSS / Fold change vs veh, ADSS / RFU, GK / Fold change vs veh, GK / RFU, ZNF148 / Fold change vs veh, ZNF148 / RFU, TAF9 / Fold change vs veh, TAF9 / RFU, SLC1A5 / Fold change vs veh, SLC1A5 / RFU, SLMO2 / Fold change vs veh, SLMO2 / RFU, ABCC4 / Fold change vs veh, ABCC4 / RFU, LOC101060439 /// RAP1B / Fold change vs veh, LOC101060439 /// RAP1B / RFU, RFX7 / Fold change vs veh, RFX7 / RFU, GTPBP10 / Fold change vs veh, GTPBP10 / RFU, CNEP1R1 / Fold change vs veh, CNEP1R1 / RFU, BIVM-ERCC5 /// ERCC5 / Fold change vs veh, BIVM-ERCC5 /// ERCC5 / RFU, ILF3 / Fold change vs veh, ILF3 / RFU 11762660_at / Fold change /veh 11762660_at / RFU VCAN (11757783_s_at) / Fold change /veh VCAN (11757783_s_at) / RFU DDX43 (11728927_at) / Fold change /veh DDX43 (11728927_at) / RFU KRT8 (11758188_x_at) / Fold change /veh KRT8 (11758188_x_at) / RFU NKD1 (11759106_at) / Fold change /veh NKD1 (11759106_at) / RFU SRD5A1 (11742802_a_at) / Fold change /veh SRD5A1 (11742802_a_at) / RFU TPSAB1 /// TPSB2 (11721975_s_at) / Fold change /veh TPSAB1 /// TPSB2 (11721975_s_at) / RFU GSTM3 (11746129_a_at) / Fold change /veh GSTM3 (11746129_a_at) / RFU IL23R (11737362_x_at) / Fold change /veh IL23R (11737362_x_at) / RFU TMEM51 (11727254_a_at) / Fold change /veh TMEM51 (11727254_a_at) / RFU PIWIL2 (11732686_x_at) / Fold change /veh PIWIL2 (11732686_x_at) / RFU ORM1 (11744905_x_at) / Fold change /veh ORM1 (11744905_x_at) / RFU CCDC152 (11743942_at) / Fold change /veh CCDC152 (11743942_at) / RFU ECM1 (11717891_a_at) / Fold change /veh ECM1 (11717891_a_at) / RFU IL23R (11748794_a_at) / Fold change /veh IL23R (11748794_a_at) / RFU TNFAIP8L3 (11732012_x_at) / Fold change /veh TNFAIP8L3 (11732012_x_at) / RFU MBOAT4 (11741988_at) / Fold change /veh MBOAT4 (11741988_at) / RFU 11764193_at / Fold change /veh 11764193_at / RFU TMEM53 (11763286_at) / Fold change /veh TMEM53 (11763286_at) / RFU MAGEB2 (11727129_at) / Fold change /veh MAGEB2 (11727129_at) / RFU TMEM200A (11744735_a_at) / Fold change /veh TMEM200A (11744735_a_at) / RFU CCDC152 (11751479_a_at) / Fold change /veh CCDC152 (11751479_a_at) / RFU FAM211A (11726209_a_at) / Fold change /veh FAM211A (11726209_a_at) / RFU RGS16 (11746705_a_at) / Fold change /veh RGS16 (11746705_a_at) / RFU VCAN (11755009_s_at) / Fold change /veh VCAN (11755009_s_at) / RFU RHOB (11743442_s_at) / Fold change /veh RHOB (11743442_s_at) / RFU RGS16 (11720943_a_at) / Fold change /veh RGS16 (11720943_a_at) / RFU RGS16 (11720944_at) / Fold change /veh RGS16 (11720944_at) / RFU, VPS4B / Fold change vs veh, VPS4B / RFU, CREB1 / Fold change vs veh, CREB1 / RFU, DNAJC13 / Fold change vs veh, DNAJC13 / RFU, GNAQ / Fold change vs veh, GNAQ / RFU, CDK5R1 / Fold change vs veh, CDK5R1 / RFU, ZRANB3 / Fold change vs veh, ZRANB3 / RFU, CUL4A / Fold change vs veh, CUL4A / RFU, CCNY / Fold change vs veh, CCNY / RFU, UFL1 / Fold change vs veh, UFL1 / RFU, COG3 / Fold change vs veh, COG3 / RFU, DIAPH2 / Fold change vs veh, DIAPH2 / RFU, SKA2 / Fold change vs veh, SKA2 / RFU, AFF3 / Fold change vs veh, AFF3 / RFU, LMF1 / Fold change vs veh, LMF1 / RFU, IPO11 / Fold change vs veh, IPO11 / RFU, DFFB / Fold change vs veh, DFFB / RFU, FOXP1 / Fold change vs veh, FOXP1 / RFU, CARD8 / Fold change vs veh, CARD8 / RFU, STRN3 / Fold change vs veh, STRN3 / RFU, ADK / Fold change vs veh, ADK / RFU, RASSF2 / Fold change vs veh, RASSF2 / RFU, WIPF1 / Fold change vs veh, WIPF1 / RFU, LARP1B / Fold change vs veh, LARP1B / RFU, RASA1 / Fold change vs veh, RASA1 / RFU, RB1 / Fold change vs veh, RB1 / RFU, PPFIA1 / Fold change vs veh, PPFIA1 / RFU, MAT2A / Fold change vs veh, MAT2A / RFU, CCT5 / Fold change vs veh, CCT5 / RFU, WDR92 / Fold change vs veh, WDR92 / RFU, CUX1 / Fold change vs veh, CUX1 / RFU, TTC7A / Fold change vs veh, TTC7A / RFU, TMEM135 / Fold change vs veh, TMEM135 / RFU, DEPTOR / Fold change vs veh, DEPTOR / RFU, CPM / Fold change vs veh, CPM / RFU, DNAJB6 / Fold change vs veh, DNAJB6 / RFU, CACNA2D3 / Fold change vs veh, CACNA2D3 / RFU, DTX4 / Fold change vs veh, DTX4 / RFU, TFCP2 / Fold change vs veh, TFCP2 / RFU, GMCL1 /// GMCL1P1 / Fold change vs veh, GMCL1 /// GMCL1P1 / RFU, AEBP2 / Fold change vs veh, AEBP2 / RFU, SNHG1 /// SNORD22 /// SNORD25 /// SNORD26 /// SNORD27 /// SNORD28 /// SNORD29 /// SNORD31 / Fold change vs veh, SNHG1 /// SNORD22 /// SNORD25 /// SNORD26 /// SNORD27 /// SNORD28 /// SNORD29 /// SNORD31 / Fold change (Aza/veh), C12orf56 (ProbeSet 11735607_a_at) / Fold change (ACY-1035/veh), C12orf56 (ProbeSet 11735607_a_at) / Fold change (Aza/veh), FGFR1OP (ProbeSet 11751329_s_at) / Fold change (ACY-1035/veh), FGFR1OP (ProbeSet 11751329_s_at) / Fold change (Aza/veh), VPS36 (ProbeSet 11739960_a_at) / Fold change (ACY-1035/veh), VPS36 (ProbeSet 11739960_a_at) / RFU SYPL1 (11715823_x_at) / Fold change /veh SYPL1 (11715823_x_at) / RFU IGFBP7 (11715501_s_at) / Fold change /veh IGFBP7 (11715501_s_at) / RFU REEP3 (11722064_at) / Fold change /veh REEP3 (11722064_at) / RFU IGLL1 (11728026_x_at) / Fold change /veh IGLL1 (11728026_x_at): dose or concentration left out as unconfirmed", "details": "ProbeSet 11754362_a_at; LIST D", "data": [{"smiles": "Nc1ccc(-c2cccs2)cc1NC(=O)c1ccc2c(c1)cc(C1CC1)n2CCN1CCOCC1", "note": "[ACY-1035]", "values": [{"measurement": "RFU, TTC7A", "result": 150.96, "unit": "RFU"}]}]}
